Laboratory results reported in patent EP2198709A1, “Method for treating resistant animal pests” (Bayer CropScience AG, priority 2008, dated 2010).

Legend:
Format in all cases: in vivo
[1] = tested on: Nymphen von Bemisia tabaci; test: Field trial on cotton plants, spray, against nymphs of neonicotinoid-resistant whiteflies (Brenes); conditions: sprayed 2x, 150 g ai/ha/m CH, I-5 SL 100, Imidacloprid SL 200
Excerpt: In Brenes (Spanien) wurden Baumwollpflanzen, die stark mit Nymphen von bekanntermaßen Neonikotinoyl-resistenten Weißen Fliegen (Bemisia tabaci) infiziert waren, jeweils zwei Mal im Abstand von 13 Tagen mit der Verbindung I-5 (SL 100, 150 g ai/ha/m CH (g aktive Substanz/ha/m CH, CH = Laubwand-Höhe) bzw. mit Imidacloprid (SL 200, 150 g ai/ha/m CH) besprüht. Zu verschiedenen Zeitpunkten nach der ersten bzw. zweiten Behandlung (DAA = Tage nach 1. Behandlung, DAB = Tage nach zweiter Behandlung) wurde die Wirksamkeit (in % Abbott: Verhältnis der Anzahl Nymphen auf behandelter Pflanze / Fläche zur Anzahl Nymphen auf Kontrolle) der beiden Substanzen gegen Nymphen von Bemisia tabaci in bestimmt.

[2] = tested on: Trialeurodes vaporariorum; test: Trial on poinsettia, spray, against neonicotinoid-resistant greenhouse whiteflies (Netherlands); conditions: 150 g ai/ha/m CH, SL 100, Imidacloprid SL 200
Excerpt: In Zwaagdiyk (Niederlande) wurden Weihnachtssterne, die stark mit bekanntermaßen Neonikotinoyl-resistenten Gewächshaus-Weißen Fliegen (Trialeurodes vaporariorum) infiziert waren, jeweils zwei Mal im Abstand von 7 Tagen mit der Verbindung 1-5 (SL 100, 150 g ai/ha/m CH (g aktive Substanz/ha/m CH, CH = Laubwand-Höhe) bzw. mit Imidacloprid (SL 200, 150 g ai/ha/m CH) besprüht. Zu verschiedenen Zeitpunkten nach der ersten bzw. zweiten Behandlung (DAA = Tage nach 1. Behandlung, DAB = Tage nach zweiter Behandlung) wurde die Wirksamkeit (in % Abbott: Verhältnis der Anzahl Tiere auf behandelter Pflanze / Fläche zur Anzahl Tiere auf Kontrolle) der beiden Substanzen gegen Trialeurodes vaporariorum bestimmt.

[3] = tested on: Eier von Bemisia argentifolii; test: Field trial on melon plants, spray, against eggs of neonicotinoid-resistant silverleaf whiteflies (Arizona); conditions: 150 g ai/ha/m CH, I-5 SL 100, Imidacloprid SC 192
Excerpt: (§1) In Arizona (USA) wurden Melonenpflanzen, die stark mit Eiern von bekanntermaßen Neonikotinoyl-resistenten Silberflügeligen Weißen Fliegen (Bemisia argentifolii) infiziert waren, jeweils zwei Mal im Abstand von 15 Tagen mit der Verbindung I-5 (SL 100, 150 g ai/ha/m CH (g aktive Substanz/ha/m CH, CH = Laubwand-Höhe) bzw. mit Imidacloprid (SC 192, 150 g ai/ha/m CH) besprüht. Zu verschiedenen Zeitpunkten nach der ersten bzw. zweiten Behandlung (DAA = Tage nach 1. Behandlung, DAB = Tage nach zweiter Behandlung) wurde die Wirksamkeit (in % Abbott: Verhältnis der Anzahl Eier auf behandelter Pflanze / Fläche zur Anzahl Eier auf Kontrolle) der beiden Substanzen gegen Eier von Bemisia argentifolii bestimmt.

[4] = tested on: Nymphen von Bemisia tabaci; test: Field trial on aubergine plants, drench, against nymphs of neonicotinoid-resistant whiteflies (Almeria); conditions: drenched 3x, 150 g ai/ha/m CH, I-5 SL 300, Imidacloprid SL 200
Excerpt: In Almeria (Südspanien) wurden Auberginenpflanzen, die stark mit Nymphen von bekanntermaßen Neonikotinoyl-resistenten weißen Fliegen (Bemisia tabaci) infiziert waren, jeweils drei Mal im Abstand von 9 und 12 Tagen mit der Verbindung I-5 (SL 300, 150 g ai/ha/m CH (g aktive Substanz/ha/m CH, CH = Laubwand-Höhe) bzw. mit Imidacloprid (SL 200, 150 g ai/ha/m CH) gegossen. Zu verschiedenen Zeitpunkten nach der dritten Behandlung (DAC = Tage nach 3. Behandlung) wurde die Wirksamkeit (in % Abbott: Verhältnis der Anzahl Nymphen auf behandelter Pflanze / Fläche zur Anzahl Nymphen auf Kontrolle) der beiden Substanzen gegen Nymphen von Bemisia tabaci in bestimmt.

[5] = tested on: Nilaparvata lugens Vietnam; test: Spray test on infested rice seedlings (standard screening), resistant strain Vietnam; conditions: rice seedlings sprayed, evaluation 7 days after infection
Excerpt: (§2) Reissetzlinge wurden mit Stämmen von Nilaparvata lugens (Bayer S und Vietnam) infiziert und mit der Verbindung I-5 bzw. mit Imidacloprid besprüht. Die Auswertung erfolgte 7 Tage nach Infektion (Standard-Screening-Verfahren).

[6] = tested on: Nymphen von Bemisia argentifolii; test: Field trial on melon plants, spray, against nymphs of neonicotinoid-resistant silverleaf whiteflies (Arizona); conditions: 150 g ai/ha/m CH, SL 100, Imidacloprid SC 192
Excerpt: as §1, with “Nymphen” for “Eiern”, “1-5” for “I-5”, “Nymphen” for “Eier”

[7] = tested on: Nilaparvata lugens Bayer S; test: Spray test on infested rice seedlings (standard screening), susceptible strain Bayer S; conditions: rice seedlings sprayed, evaluation 7 days after infection
Excerpt: as §2

[8] = tested on: Nymphen von Bemisia tabaci; test: Field trial on pepper plants, spray, against nymphs of neonicotinoid-resistant whiteflies (Almeria); conditions: sprayed 3x, 150 g ai/ha/m CH, I-5 SL 200, Imidacloprid OD 200
Excerpt: In Almeria (Südspanien) wurden Paprikapflanzen, die sehr stark mit Nymphen von bekanntermaßen Neonikotinoyl-resistenten Weißen Fliegen (Bemisia tabaci) infiziert waren, jeweils drei Mal im Abstand von 9 und 12 Tagen mit der Verbindung I-5 (SL 200, 150 g ai/ha/m CH (g aktive Substanz/ha/m CH, CH = Laubwand-Höhe) bzw. mit Imidacloprid (OD 200, 150 g ai/ha/m CH) besprüht. Zu verschiedenen Zeitpunkten nach der dritten Behandlung (DAC = Tage nach 3. Behandlung) wurde die Wirksamkeit (in % Abbott: Verhältnis der Anzahl Nymphen auf behandelter Pflanze / Fläche zur Anzahl Nymphen auf Kontrolle) der beiden Substanzen gegen Nymphen von Bemisia tabaci in bestimmt.

[9] = 7 DAB (days after 2nd treatment), sprayed 2x
[10] = 8 DAA (days after 1st treatment), sprayed
[11] = 7 DAC (days after 3rd treatment)

Row | Structure (SMILES) | Effizienz ([1]; 13 DAB) | Effizienz ([1]; 15 DAB) | Effizienz ([1]; 25 DAB) | Effizienz ([1]; 36 DAB) | Effizienz ([2]; 7 DAA, sprayed) | Effizienz ([2]; 7 DAB, sprayed 2x) | Effizienz ([2]; 14 DAB, sprayed 2x) | Effizienz ([2]; 21 DAB, sprayed 2x) | Effizienz ([2]; 29 DAB, sprayed 2x) | Effizienz [3, 9] | Effizienz [3, 10] | Effizienz ([3]; 13 DAB, sprayed 2x) [% Abbott] | Effizienz ([3]; 14 DAA, sprayed) | Effizienz ([4]; 7 DAC) | Effizienz ([4]; 14 DAC) | Effizienz ([4]; 21 DAC) | Vietnam (resistenter Stamm) LC50 [5] | Effizienz ([6]; 7 DAB, sprayed 2x) | Effizienz ([6]; 8 DAA, sprayed) | Effizienz ([6]; 13 DAB, sprayed 2x) | further results
1 | O=[N+]([O-])NC1=NCCN1Cc1ccc(Cl)nc1 [Imidacloprid] | 60 % Abbott | 56,9 % Abbott | 42,1 % Abbott | 24,3 % Abbott | 11,4 % Abbott | 9,9 % Abbott | 0 % Abbott | 3,7 % Abbott | 18,6 % Abbott | 30,2 % Abbott | 66,1 % Abbott | 0 | 69,5 % Abbott | 41 % Abbott | 50,7 % Abbott | 21 % Abbott | 13 g/ha | 36,1 % Abbott | 53,1 % Abbott | 31,9 % Abbott | Effizienz ([6]; 14 DAA, sprayed): 47,6 % Abbott; Bayer S (empfindlicher Stamm) LC50 [7]: 0,0049 g/ha; Effizienz [8, 11]: 76,7 % Abbott; Effizienz ([8]; 14 DAC): 75,3 % Abbott; Effizienz ([8]; 21 DAC): 75,1 % Abbott; Effizienz ([8]; 28 DAC): 1,3 % Abbott
2 | O=C1C=C(N(Cc2ccc(Cl)nc2)CC(F)F)CO1 [Verbindung I-5, 4-{[(6-Chlorpyrid-3-yl)methyl](2,2-difluorethyl)amino}furan-2(5H)-on] | 78,9 % Abbott | 63,5 % Abbott | 77,8 % Abbott | 70,8 % Abbott | 23 % Abbott | 50,9 % Abbott | 39,1 % Abbott | 62,2 % Abbott | 50,9 % Abbott | 81,6 % Abbott | 97,6 % Abbott | 69 | 72,9 % Abbott | 79,1 % Abbott | 63,7 % Abbott | 66,8 % Abbott | 3,2 g/ha | 55,4 % Abbott | 86,8 % Abbott | 80,9 % Abbott | Effizienz ([6]; 14 DAA, sprayed): 84,6 % Abbott; Bayer S (empfindlicher Stamm) LC50 [7]: 0,36 g/ha; Effizienz [8, 11]: 99,2 % Abbott; Effizienz ([8]; 14 DAC): 98,5 % Abbott; Effizienz ([8]; 21 DAC): 97,4 % Abbott; Effizienz ([8]; 28 DAC): 84,3 % Abbott
